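Values below derive from 48-hour exposures of cells grown in 96-well plates, with endpoints linearly interpolated between the two concentrations bracketing the appropriate inhibition level. GI50: concentration for 50% inhibition of growth. TGI is the concentration that stops growth completely.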
What was measured:
Experiment in all cases: NCI anticancer screen, dose series, 48 h
786-0 renal = tested on: 786-0 renal
A498 renal = tested on: A498 renal
A549 NSCLC = tested on: A549 NSCLC
ACHN renal = tested on: ACHN renal
BT-549 breast = tested on: BT-549 breast
CAKI-1 renal = tested on: CAKI-1 renal
CCRF-CEM leukemia = tested on: CCRF-CEM leukemia
COLO 205 colon = tested on: COLO 205 colon
DU-145 prostate = tested on: DU-145 prostate
EKVX NSCLC = tested on: EKVX NSCLC
HCC-2998 colon = tested on: HCC-2998 colon
HCT-116 colon = tested on: HCT-116 colon
HCT-15 colon = tested on: HCT-15 colon
HL-60(TB) leukemia = tested on: HL-60(TB) leukemia
HOP-62 NSCLC = tested on: HOP-62 NSCLC
HOP-92 NSCLC = tested on: HOP-92 NSCLC
HS 578T breast = tested on: HS 578T breast
HT29 colon = tested on: HT29 colon
IGROV1 ovarian = tested on: IGROV1 ovarian
K-562 leukemia = tested on: K-562 leukemia
KM12 colon = tested on: KM12 colon
LOX IMVI melanoma = tested on: LOX IMVI melanoma
M14 melanoma = tested on: M14 melanoma
MALME-3M melanoma = tested on: MALME-3M melanoma
MCF7 breast = tested on: MCF7 breast
MDA-MB-231 breast = tested on: MDA-MB-231 breast
MDA-MB-435 = tested on: MDA-MB-435
MOLT-4 leukemia = tested on: MOLT-4 leukemia
NCI-H226 lung = tested on: NCI-H226 lung
NCI-H23 lung = tested on: NCI-H23 lung
NCI-H460 lung = tested on: NCI-H460 lung
NCI-H522 lung = tested on: NCI-H522 lung
NCI/ADR-RES ovarian = tested on: NCI/ADR-RES ovarian
OVCAR-4 ovarian = tested on: OVCAR-4 ovarian
OVCAR-5 ovarian = tested on: OVCAR-5 ovarian
OVCAR-8 ovarian = tested on: OVCAR-8 ovarian
PC-3 prostate = tested on: PC-3 prostate
RPMI-8226 leukemia = tested on: RPMI-8226 leukemia
RXF 393 renal = tested on: RXF 393 renal
SF-268 CNS = tested on: SF-268 CNS
SF-295 CNS = tested on: SF-295 CNS
SF-539 CNS = tested on: SF-539 CNS
SK-MEL-2 melanoma = tested on: SK-MEL-2 melanoma
SK-MEL-28 melanoma = tested on: SK-MEL-28 melanoma
SK-MEL-5 melanoma = tested on: SK-MEL-5 melanoma
SK-OV-3 ovarian = tested on: SK-OV-3 ovarian
SN12C renal = tested on: SN12C renal
SNB-19 CNS = tested on: SNB-19 CNS
SNB-75 CNS = tested on: SNB-75 CNS
SW-620 colon = tested on: SW-620 colon
T-47D breast = tested on: T-47D breast
TK-10 renal = tested on: TK-10 renal
U251 CNS = tested on: U251 CNS
UACC-257 melanoma = tested on: UACC-257 melanoma
UACC-62 melanoma = tested on: UACC-62 melanoma
UO-31 renal = tested on: UO-31 renal

CCCCCc1ccc(S(=O)(=O)N(C(C)=O)c2cccc(-c3csc(N(CCN4CCN(C)CC4)C(C)=O)n3)c2)cc1
GI50 (786-0 renal): 0.642 µM
TGI (786-0 renal): 2 µM
GI50 (A498 renal): 1.24 µM
TGI (A498 renal): 4.75 µM
GI50 (A549 NSCLC): 3.03 µM
TGI (A549 NSCLC): 6.27 µM
GI50 (ACHN renal): 3.52 µM
TGI (ACHN renal): 6.77 µM
GI50 (BT-549 breast): 2.94 µM
TGI (BT-549 breast): 6.04 µM
GI50 (CAKI-1 renal): 2.93 µM
TGI (CAKI-1 renal): 6.2 µM
GI50 (CCRF-CEM leukemia): 1.95 µM
TGI (CCRF-CEM leukemia): 7.49 µM
GI50 (COLO 205 colon): 0.815 µM
TGI (COLO 205 colon): 2.96 µM
GI50 (DU-145 prostate): 3.48 µM
TGI (DU-145 prostate): 6.81 µM
GI50 (EKVX NSCLC): 3.79 µM
TGI (EKVX NSCLC): 7.27 µM
GI50 (HCC-2998 colon): 1.15 µM
TGI (HCC-2998 colon): 4.07 µM
GI50 (HCT-116 colon): 0.929 µM
TGI (HCT-116 colon): 3.41 µM
GI50 (HCT-15 colon): 0.837 µM
TGI (HCT-15 colon): 2.98 µM
GI50 (HL-60(TB) leukemia): 0.991 µM
TGI (HL-60(TB) leukemia): 4.51 µM
GI50 (HOP-62 NSCLC): 3.58 µM
TGI (HOP-62 NSCLC): 7.3 µM
GI50 (HOP-92 NSCLC): 1.06 µM
TGI (HOP-92 NSCLC): 4.62 µM
GI50 (HS 578T breast): 3.3 µM
TGI (HS 578T breast): 10.8 µM
GI50 (HT29 colon): 0.856 µM
TGI (HT29 colon): 2.71 µM
GI50 (IGROV1 ovarian): 2.96 µM
TGI (IGROV1 ovarian): 6.61 µM
GI50 (K-562 leukemia): 0.751 µM
TGI (K-562 leukemia): 3.01 µM
GI50 (KM12 colon): 4.04 µM
TGI (KM12 colon): 8.04 µM
GI50 (LOX IMVI melanoma): 0.085 µM
TGI (LOX IMVI melanoma): 1.26 µM
GI50 (M14 melanoma): 2.23 µM
TGI (M14 melanoma): 5.64 µM
GI50 (MALME-3M melanoma): 1.58 µM
TGI (MALME-3M melanoma): 5.04 µM
GI50 (MCF7 breast): 0.83 µM
TGI (MCF7 breast): 3.3 µM
GI50 (MDA-MB-231 breast): 2.64 µM
TGI (MDA-MB-231 breast): 5.96 µM
GI50 (MDA-MB-435): 0.987 µM
TGI (MDA-MB-435): 3.74 µM
GI50 (MOLT-4 leukemia): 1.22 µM
TGI (MOLT-4 leukemia): 5.26 µM
GI50 (NCI-H226 lung): 4.09 µM
TGI (NCI-H226 lung): 8.82 µM
GI50 (NCI-H23 lung): 3.8 µM
TGI (NCI-H23 lung): 7.39 µM
GI50 (NCI-H460 lung): 1.4 µM
TGI (NCI-H460 lung): 4.61 µM
GI50 (NCI-H522 lung): 3.91 µM
TGI (NCI-H522 lung): 7.55 µM
GI50 (NCI/ADR-RES ovarian): 3.5 µM
TGI (NCI/ADR-RES ovarian): 7.55 µM
GI50 (OVCAR-4 ovarian): 3.49 µM
TGI (OVCAR-4 ovarian): 7.42 µM
GI50 (OVCAR-5 ovarian): 3.5 µM
TGI (OVCAR-5 ovarian): 6.81 µM
GI50 (OVCAR-8 ovarian): 3.51 µM
TGI (OVCAR-8 ovarian): 6.95 µM
GI50 (PC-3 prostate): 3.32 µM
TGI (PC-3 prostate): 7.06 µM
GI50 (RPMI-8226 leukemia): 2.5 µM
TGI (RPMI-8226 leukemia): 7.53 µM
GI50 (RXF 393 renal): 1.19 µM
TGI (RXF 393 renal): 4.35 µM
GI50 (SF-268 CNS): 3.56 µM
TGI (SF-268 CNS): 7.6 µM
GI50 (SF-295 CNS): 3.63 µM
TGI (SF-295 CNS): 7.15 µM
GI50 (SF-539 CNS): 3.64 µM
TGI (SF-539 CNS): 7.01 µM
GI50 (SK-MEL-2 melanoma): 3.99 µM
TGI (SK-MEL-2 melanoma): 7.44 µM
GI50 (SK-MEL-28 melanoma): 3.07 µM
TGI (SK-MEL-28 melanoma): 6.22 µM
GI50 (SK-MEL-5 melanoma): 3.31 µM
TGI (SK-MEL-5 melanoma): 6.57 µM
GI50 (SK-OV-3 ovarian): 4.04 µM
TGI (SK-OV-3 ovarian): 7.64 µM
GI50 (SN12C renal): 3.4 µM
TGI (SN12C renal): 6.75 µM
GI50 (SNB-19 CNS): 3.63 µM
TGI (SNB-19 CNS): 7.14 µM
GI50 (SNB-75 CNS): 1.06 µM
TGI (SNB-75 CNS): 5.21 µM
GI50 (SW-620 colon): 0.824 µM
TGI (SW-620 colon): 3.19 µM
GI50 (T-47D breast): 2.79 µM
TGI (T-47D breast): 6.73 µM
GI50 (TK-10 renal): 4.08 µM
TGI (TK-10 renal): 7.57 µM
GI50 (U251 CNS): 2.75 µM
TGI (U251 CNS): 5.81 µM
GI50 (UACC-257 melanoma): 4.37 µM
TGI (UACC-257 melanoma): 8.1 µM
GI50 (UACC-62 melanoma): 4.21 µM
TGI (UACC-62 melanoma): 7.79 µM
GI50 (UO-31 renal): 2.86 µM
TGI (UO-31 renal): 5.96 µM

From PubChem BioAssay (NCI)
